≈ marks a conversion by molar mass, not a printed value. Read-outs that look alike come from different tables or passages of the source.
Columns and labels:
Assay type in all cases: cell-based
[1] = test system: Carbapenem-resistant Acinetobacter baumannii (CRAB); assay: Test Example 1: antibacterial activity test (MIC)
Procedure: (§1) The test compounds were diluted in a gradient and used for an MIC assay on the test strains. The test compounds at an initial assay concentration of 32 μg/mL were diluted in a 2-fold gradient (11 concentration points in total), and two duplicate wells were set for each concentration. Additional wells without drug dosing were set as growth controls. The minimum inhibitory concentration (MIC) assay was performed with reference to the Clinical and Laboratory Standards Institute (CLSI) guidelines.
(§2) After the frozen strains were subcultured, a single colony was picked and re-suspended in normal saline or sterile water in a tube. The bacterial suspension was vortexed and adjusted to 0.5 McF using a spectrophotometer at the wavelength of 530 nm. The bacterial solution was taken by a pipette, added to a culture medium, diluted and mixed well, and seeded to a bacterial assay plate.
(§3) The 96-well plate was affixed with a disposable sealing film, shaken and mixed well, and visually observed using a plate reader. The minimum concentration of the compounds capable of inhibiting the growth of bacteria was defined as MIC as compared to the growth controls.

[2] = test system: Carbapenem-resistant Enterobacteriaceae (CRE); assay: Test Example 1: antibacterial activity test (MIC)
Procedure: as §1, §2, §3

[3] = test system: Carbapenem-resistant Pseudomonas aeruginosa (CRPA); assay: Test Example 1: antibacterial activity test (MIC)
Procedure: as §1, §2, §3

[4] = test system: Carbapenem-resistant Acinetobacter baumannii (CRAB, Acinetobacter baumannii); assay: Test Example 2: antibacterial activity test (MIC); settings: ID-CAMHB, read-out: ID-CAMHB, MIC
Procedure: (§4) 1. The test compounds were dissolved in sterile normal saline, vortexed for uniformly mixing, and diluted in a 2-fold dilution with the sterile normal saline (11 concentration points in total). The test concentration range was 32-0.031 μg/mL, and two duplicate wells were set for each concentration. Additional wells without drug dosing were set as growth controls. 2. 4 μL of the diluent was added to 196 μL of the bacterial suspension in a 96-well plate (the bacterial count in the bacterial suspension was 2-8×10^5 colony forming units/mL). 3.
(§5) The minimum inhibitory concentration (MIC) assay was performed with reference to the Clinical and Laboratory Standards Institute (CLSI) guidelines.

[5] = test system: Carbapenem-resistant Enterobacteriaceae (CRE, Klebsiella pneumoniae); assay: Test Example 2: antibacterial activity test (MIC); settings: ID-CAMHB, read-out: ID-CAMHB, MIC
Procedure: as §4, §5

[6] = test system: Carbapenem-resistant Pseudomonas aeruginosa (CRPA, Pseudomonas aeruginosa); assay: Test Example 2: antibacterial activity test (MIC); settings: ID-CAMHB, read-out: ID-CAMHB, MIC
Procedure: as §4, §5

[7] = test system: Control Strain Pseudomonas aeruginosa ATCC 27853; assay: Test Example 2: antibacterial activity test (MIC); settings: ATCC27853, ID-CAMHB, ATCC 27853, read-out: ID-CAMHB, MIC
Procedure: as §4, §5

[8] = test system: Control strain Escherichia coli ATCC 25922; assay: Test Example 2: antibacterial activity test (MIC); settings: ATCC25922, ID-CAMHB, ATCC 25922, read-out: ID-CAMHB, MIC
Procedure: as §4, §5

[9] = FDA-CDC AR-BANK #0036 (strB, OXA-65, OXA-24, strA, sul2)
[10] = FDA-CDC AR-BANK #0052 (OXA-58, OXA-100, sul2)
[11] = FDA-CDC AR-BANK #0063 (OXA-23, OXA-65, OXA-24, sul2)
[12] = FDA-CDC AR-BANK #0070 (OXA-58, OXA-100, sul2)
[13] = FDA-CDC AR-BANK #0101 (strB, OXA-65, OXA-24, strA, sul2)
[14] = FDA-CDC AR-BANK #0361 (TEM-1; SHV-12; KPC-2)
[15] = FDA-CDC AR-BANK #0362 (TEM-1; SHV-11; KPC-2)
[16] = FDA-CDC AR-BANK #0363 (TEM-1; SHV-12; KPC-2)
[17] = FDA-CDC AR-BANK #0438 (aph(3′)-Ia, dfrA12, KPC-3, OmpK35, oqxA, oqxB, SHV-11)
[18] = FDA-CDC AR-BANK #0453 (KPC-3, OmpK35, oqxA, oqxB, SHV-11, TEM-1B)
[19] = FDA-CDC AR-BANK #0439 (aac(6′)-Il, aadA1b, BCR1, IMP-18, OXA-50)
[20] = FDA-CDC AR-BANK #0444 (aac(6′)-Il, dfrB5, OXA-4, tet(G), VIM-2)
[21] = FDA-CDC AR-BANK #0457 (aadA6, VIM-2)

Compound | MIC [4, 9] [µg/mL] | MIC [4, 10] [µg/mL] | MIC [4, 11] [µg/mL] | MIC [4, 12] [µg/mL] | MIC [4, 13] [µg/mL] | MIC ([1]; CRAB strain No. 100085) [µg/mL] | MIC ([1]; CRAB strain No. 100333) [µg/mL] | MIC ([1]; CRAB strain No. 110440) [µg/mL] | MIC ([1]; CRAB strain No. 110477) [µg/mL] | MIC ([1]; CRAB strain No. 110517) [µg/mL] | MIC ([2]; CRE strain No. 100109) [µg/mL] | MIC ([2]; CRE strain No. 100186) [µg/mL] | MIC ([2]; CRE strain No. 110502) [µg/mL] | MIC ([2]; CRE strain No. 110525) [µg/mL] | MIC ([2]; CRE strain No. 311277) [µg/mL] | MIC ([3]; CRPA strain No. 100110) [µg/mL] | MIC ([3]; CRPA strain No. 110163) [µg/mL] | MIC ([3]; CRPA strain No. 110224) [µg/mL] | MIC ([3]; CRPA strain No. 110358) [µg/mL] | MIC ([3]; CRPA strain No. 110390) [µg/mL] | other results
CC(C)(O/N=C(\C(=O)N[C@@H]1C(=O)N2C(C(=O)[O-])=C(C[N+]3(CCCC[C@H](N)C(=O)O)CCCC3)CSC12)c1csc(N)n1)C(=O)O (stereo partly shown) [Compound 1] | – | – | – | – | – | > 32 | > 32 | > 32 | > 32 | > 32 | > 32 | > 32 | > 32 | > 32 | > 32 | 16 (≈ 24 µM) | > 32 | 32 (≈ 47.9 µM) | > 32 | > 32 | –
CON(CC[N+]1(CC2=C(C(=O)O)N3C(=O)[C@@H](NC(=O)/C(=N\OC(C)(C)C(=O)O)c4csc(N)n4)[C@H]3SC2)CCCC1)C(=O)c1ccc(O)c(O)c1Cl [Compound 3] | – | – | – | – | – | 3 | 6 | 4 | 4 | 1 | 3 | 6 | > 32 | 16 | 8 | 0.562 | 1 | 1 | 2 | 2 | –
CC(C)(O/N=C(\C(=O)N[C@@H]1C(=O)N2C(C(=O)O)=C(C[N+]3(CCNC(=S)Nc4ccc(O)c(O)c4Cl)CCCC3)CS[C@H]12)c1csc(N)n1)C(=O)O [Compound 4] | – | – | – | – | – | > 32 | > 32 | > 32 | > 32 | > 32 | > 32 | > 32 | > 32 | > 32 | > 32 | 16 | > 32 | > 32 | > 32 | > 32 | –
CC(C)(O/N=C(\C(=O)N[C@@H]1C(=O)N2C(C(=O)O)=C(C[N+]3(CCN(O)C(=O)c4ccc(O)c(O)c4Cl)CCCC3)CS[C@H]12)c1csc(N)n1)C(=O)O [Compound 6] | – | – | – | – | – | 3 | 6 | 4 | 3 | 1 | 2 | 1.5 | 32 | 4 | 8 | 0.063 | 0.5 | 0.625 | 4 | 2 | –
CC(C)(O/N=C(\C(=O)N[C@@H]1C(=O)N2C(C(=O)O)=C(C[N+]3(CCNC(=N)c4ccc(O)c(O)c4Cl)CCCC3)CS[C@H]12)c1csc(N)n1)C(=O)O [Compound 9] | > 32 | > 32 | > 32 | > 32 | > 32 | – | – | – | – | – | – | – | – | – | – | – | – | – | – | – | MIC [5, 14]: > 32 µg/mL; MIC [5, 15]: 16 µg/mL; MIC [5, 16]: > 32 µg/mL; MIC [5, 17]: > 32 µg/mL; MIC [5, 18]: > 32 µg/mL; MIC [6, 19]: > 32 µg/mL; MIC ([6]; FDA-CDC AR-BANK #0441 (KPC-2)): > 32 µg/mL; MIC [6, 20]: > 32 µg/mL; MIC [6, 21]: > 32 µg/mL; MIC [7]: > 32 µg/mL; MIC [8]: 16 µg/mL

Now from value to compound, other results behind:

MIC [4, 9] [µg/mL] | MIC [4, 10] [µg/mL] | MIC [4, 11] [µg/mL] | MIC [4, 12] [µg/mL] | MIC [4, 13] [µg/mL] | Compound | MIC ([1]; CRAB strain No. 100085) [µg/mL] | MIC ([1]; CRAB strain No. 100333) [µg/mL] | MIC ([1]; CRAB strain No. 110440) [µg/mL] | MIC ([1]; CRAB strain No. 110477) [µg/mL] | MIC ([1]; CRAB strain No. 110517) [µg/mL] | MIC ([2]; CRE strain No. 100109) [µg/mL] | MIC ([2]; CRE strain No. 100186) [µg/mL] | MIC ([2]; CRE strain No. 110502) [µg/mL] | MIC ([2]; CRE strain No. 110525) [µg/mL] | MIC ([2]; CRE strain No. 311277) [µg/mL] | MIC ([3]; CRPA strain No. 100110) [µg/mL] | MIC ([3]; CRPA strain No. 110163) [µg/mL] | MIC ([3]; CRPA strain No. 110224) [µg/mL] | MIC ([3]; CRPA strain No. 110358) [µg/mL] | MIC ([3]; CRPA strain No. 110390) [µg/mL] | other results
> 32 | > 32 | > 32 | > 32 | > 32 | CC(=O)N(O)CC[N+]1(CC2=C(C(=O)O)N3C(=O)[C@@H](NC(=O)/C(=N\OC(C)(C)C(=O)O)c4csc(N)n4)[C@H]3SC2)CCCC1 [Compound 5] | – | – | – | – | – | – | – | – | – | – | – | – | – | – | – | MIC [5, 14]: > 32 µg/mL; MIC [5, 15]: > 32 µg/mL; MIC [5, 16]: > 32 µg/mL; MIC [5, 17]: > 32 µg/mL; MIC [5, 18]: > 32 µg/mL; MIC [6, 19]: > 32 µg/mL; MIC ([6]; FDA-CDC AR-BANK #0441 (KPC-2)): > 32 µg/mL; MIC [6, 20]: > 32 µg/mL; MIC [6, 21]: > 32 µg/mL; MIC [7]: > 32 µg/mL; MIC [8]: > 32 µg/mL
2 | 0.25 | > 32 | 0.125 | 4 | CC(C)(O/N=C(\C(=O)N[C@@H]1C(=O)N2C(C(=O)O)=C(C[N+]3(CCNC(=S)c4ccc(O)c(O)c4Cl)CCCC3)CS[C@H]12)c1csc(N)n1)C(=O)O [Compound 7] | – | – | – | – | – | – | – | – | – | – | – | – | – | – | – | MIC [5, 14]: 1 µg/mL; MIC [5, 15]: 1 µg/mL; MIC [5, 16]: 0.5 µg/mL; MIC [5, 17]: 2 µg/mL; MIC [5, 18]: 4 µg/mL; MIC [6, 19]: 8 µg/mL; MIC ([6]; FDA-CDC AR-BANK #0441 (KPC-2)): 8 µg/mL; MIC [6, 20]: 32 µg/mL; MIC [6, 21]: 1 µg/mL; MIC [7]: 0.125 µg/mL; MIC [8]: 0.125 µg/mL
0.25 | 0.0625 | 8 | 0.125 | 2 | CC(C)(O/N=C(\C(=O)N[C@@H]1C(=O)N2C(C(=O)O)=C(C[N+]3(CCNC(=O)c4ccc5cc(O)c(O)cc5c4)CCCC3)CS[C@H]12)c1csc(N)n1)C(=O)O [Compound 8] | – | – | – | – | – | – | – | – | – | – | – | – | – | – | – | MIC [5, 14]: 2 µg/mL; MIC [5, 15]: 1 µg/mL; MIC [5, 16]: 0.25 µg/mL; MIC [5, 17]: 2 µg/mL; MIC [5, 18]: 2 µg/mL; MIC [6, 19]: 1 µg/mL; MIC ([6]; FDA-CDC AR-BANK #0441 (KPC-2)): 4 µg/mL; MIC [6, 20]: 4 µg/mL; MIC [6, 21]: 0.25 µg/mL; MIC [7]: 0.25 µg/mL; MIC [8]: 0.25 µg/mL

From patent publication US20230121689A1, “CEPHALOSPORIN ANTIBACTERIAL COMPOUND AND PHARMACEUTICAL APPLICATION THEREOF” (priority 2020, published 2023)
